Assay results from ChEMBL document CHEMBL1201862, “PubChem BioAssay data set” (2004).
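Growth conditions: 96-well plates. Treatment: test compound, 48 hours, 5 concentrations. Analysis: linear interpolation between bracketing concentrations; unreached endpoints set to highest concentration. The concentration for 50% growth inhibition is given as GI50.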 Activity calls are given as the source filed them. No stated cut-off is given here; in the data, active = GI50 up to about 1.1 µM and inactive = higher.

Legend:
Test in all cases: NCI-60 cell line screen, 48 h
COLO 205 = tested on: COLO 205
DU-145 = tested on: DU-145
HCT-116 = tested on: HCT-116
HT-29 = tested on: HT-29
K562 = tested on: K562
LOX IMVI = tested on: LOX IMVI
M14 = tested on: M14
NCI-H226 = tested on: NCI-H226
OVCAR-3 = tested on: OVCAR-3
PC-3 = tested on: PC-3
RPMI-8226 = tested on: RPMI-8226
RXF 393 = tested on: RXF 393
SF-268 = tested on: SF-268
SN12C = tested on: SN12C
SR = tested on: SR
SW-620 = tested on: SW-620
TK-10 = tested on: TK-10
U-251 = tested on: U-251
UO-31 = tested on: UO-31
SK-MEL-28 = tested on: SK-MEL-28

Measured: GI50

Cc1ccc2c(O)cc(-c3csc4ccccc34)nc2n1
active: COLO 205 0.0239 µM | DU-145 0.0163 µM | HCT-116 < 0.0104 µM | HT-29 0.0173 µM | K562 < 0.01 µM | LOX IMVI < 0.0115 µM | M14 < 0.01 µM | NCI-H226 0.0174 µM | OVCAR-3 < 0.01 µM | PC-3 < 0.01 µM | RPMI-8226 < 0.01 µM | RXF 393 < 0.01 µM | SF-268 0.018 µM | SN12C 0.0323 µM | SR < 0.01 µM | SW-620 < 0.01 µM | TK-10 0.484 µM | U-251 < 0.01 µM | UO-31 0.0138 µM

C#CCCOC(=O)CC1=C(C)/C(=C/c2ccc([S+](C)[O-])cc2)c2ccc(F)cc21 (stereo not drawn)
inactive: COLO 205 15.2 µM | DU-145 17.2 µM | HCT-116 16.8 µM | K562 13.2 µM | LOX IMVI 14.9 µM | M14 16.2 µM | NCI-H226 19 µM | OVCAR-3 15.4 µM | PC-3 11.3 µM | RPMI-8226 11 µM | RXF 393 21.4 µM | SF-268 20.6 µM | SN12C 19.5 µM | SR 3.47 µM | SW-620 14.3 µM | TK-10 28.3 µM | U-251 15 µM | UO-31 15.5 µM

CCn1c2nc(=O)n(CCCCCCCCSC(c3ccccc3)(c3ccccc3)c3ccccc3)c(=O)c-2nc2ccccc21
inactive: DU-145 90.6 µM | HCT-116 3.7 µM | HT-29 2.74 µM | K562 5.55 µM | LOX IMVI 53.5 µM | M14 8.61 µM | NCI-H226 > 100 µM | OVCAR-3 6.7 µM | PC-3 4.9 µM | RPMI-8226 4.22 µM | RXF 393 11.3 µM | SF-268 4.08 µM | SK-MEL-28 53.3 µM | SR 2.61 µM | SW-620 3.41 µM | TK-10 43.9 µM | U-251 19 µM | UO-31 6.65 µM

COc1cc(C(CN)N(C)C)cc(OC)c1OC (stereo not drawn)
inactive: COLO 205 77.8 µM | DU-145 > 100 µM | HCT-116 > 100 µM | HT-29 > 100 µM | K562 > 100 µM | LOX IMVI > 100 µM | M14 > 100 µM | NCI-H226 29.6 µM | OVCAR-3 > 100 µM | PC-3 > 100 µM | RXF 393 > 100 µM | SF-268 > 100 µM | SK-MEL-28 > 100 µM | SN12C 49.2 µM | SR 8.49 µM | SW-620 > 100 µM | TK-10 > 100 µM | U-251 > 100 µM | UO-31 > 100 µM

CCCC(=O)OC1C(CO)OC(n2cc(F)c(=O)[nH]c2=O)C1F (stereo not drawn)
inactive: COLO 205 > 100 µM | DU-145 17.3 µM | HCT-116 22.3 µM | HT-29 55.2 µM | LOX IMVI > 100 µM | NCI-H226 > 100 µM | OVCAR-3 54.6 µM | PC-3 92.3 µM | RPMI-8226 1.57 µM | RXF 393 > 100 µM | SK-MEL-28 > 100 µM | SN12C 15.4 µM | SR 5.41 µM | SW-620 > 100 µM | TK-10 > 100 µM | U-251 7.45 µM | UO-31 > 100 µM

CN(/N=C\c1ccc2ccccc2c1)C1=NCCCCN1
inactive: COLO 205 16.1 µM | DU-145 54.2 µM | HCT-116 24.9 µM | HT-29 16.1 µM | K562 17.4 µM | LOX IMVI 13.6 µM | NCI-H226 35.3 µM | OVCAR-3 36.5 µM | PC-3 16.7 µM | RPMI-8226 19.8 µM | RXF 393 12.5 µM | SF-268 34.4 µM | SK-MEL-28 15.2 µM | SN12C 18.5 µM | SR 21.2 µM | SW-620 17.9 µM | TK-10 20.2 µM | U-251 18 µM | UO-31 13.8 µM

O=[N+]([O-])/C(C(Cl)=C(Cl)Cl)=C(\SCc1ccccc1)N1CCCCC1
inactive: COLO 205 16.4 µM | DU-145 41.3 µM | HCT-116 16.3 µM | HT-29 36.6 µM | K562 27.8 µM | LOX IMVI 15.9 µM | M14 19.3 µM | NCI-H226 19.7 µM | OVCAR-3 14.1 µM | PC-3 20 µM | RPMI-8226 11.5 µM | RXF 393 19.7 µM | SF-268 23.7 µM | SK-MEL-28 37.2 µM | SN12C 20.2 µM | SR 8.34 µM | TK-10 38.4 µM | U-251 43.8 µM | UO-31 24.2 µM

Cc1ccc(/N=c2/oc3c(ccc4ccccc43)nc2Nc2ccc(C)cc2)cc1
inactive: COLO 205 > 100 µM | DU-145 > 100 µM | HCT-116 > 100 µM | HT-29 > 100 µM | K562 > 100 µM | LOX IMVI > 100 µM | NCI-H226 > 100 µM | PC-3 > 100 µM | RPMI-8226 > 100 µM | RXF 393 > 100 µM | SF-268 > 100 µM | SK-MEL-28 > 100 µM | SN12C > 100 µM | SR 69.8 µM | SW-620 > 100 µM | TK-10 > 100 µM | U-251 > 100 µM | UO-31 > 100 µM

COc1ccc2c(c1O)[C@@]13C=C(O)C(=O)C=C1[C@@H](C2)N(C)CC3
inactive: COLO 205 > 100 µM | DU-145 56.9 µM | HCT-116 34.1 µM | HT-29 31.6 µM | K562 > 100 µM | LOX IMVI 31.6 µM | M14 62.2 µM | NCI-H226 56.9 µM | OVCAR-3 26.9 µM | PC-3 34.8 µM | RPMI-8226 > 100 µM | RXF 393 48.1 µM | SF-268 28.6 µM | SK-MEL-28 87.7 µM | SN12C 50 µM | SR 42.7 µM | TK-10 > 100 µM | U-251 86.1 µM | UO-31 51.9 µM

CC(O)(Cc1ccccc1C#N)Cc1ccccc1C#N
inactive: COLO 205 70.8 µM | DU-145 > 100 µM | HCT-116 > 100 µM | HT-29 > 100 µM | K562 50 µM | LOX IMVI > 100 µM | M14 > 100 µM | NCI-H226 50 µM | OVCAR-3 65.6 µM | PC-3 71.3 µM | RXF 393 > 100 µM | SF-268 > 100 µM | SK-MEL-28 > 100 µM | SN12C > 100 µM | SR > 100 µM | SW-620 > 100 µM | TK-10 > 100 µM | U-251 > 100 µM

OC1c2ccccc2CCC1CN1CCN(CCOC(c2ccc(F)cc2)c2ccc(F)cc2)CC1 (stereo not drawn)
inactive: COLO 205 1.72 µM | DU-145 21 µM | HCT-116 8.22 µM | K562 2.94 µM | LOX IMVI 13.8 µM | M14 10.9 µM | NCI-H226 13.6 µM | OVCAR-3 17.4 µM | PC-3 16.3 µM | RPMI-8226 5.77 µM | RXF 393 6.18 µM | SF-268 16.6 µM | SK-MEL-28 13.3 µM | SN12C 13.1 µM | SR 2.53 µM | SW-620 16.2 µM | TK-10 17 µM | U-251 13.8 µM

Cc1ccc(S(=O)(=O)NC2C(=O)c3ccccc3C(=O)C2n2cnc3ccccc32)cc1 (stereo not drawn)
inactive: COLO 205 20 µM | DU-145 57.9 µM | HCT-116 27.4 µM | HT-29 28.1 µM | K562 90.6 µM | LOX IMVI 31.8 µM | M14 25.3 µM | NCI-H226 42.8 µM | OVCAR-3 4.3 µM | PC-3 21.2 µM | RPMI-8226 32.5 µM | RXF 393 24.9 µM | SF-268 40 µM | SK-MEL-28 29.3 µM | SN12C 32.7 µM | SR 34.4 µM | SW-620 25.3 µM | TK-10 17.7 µM | U-251 26.1 µM

Cc1ccc(Nc2nc3[nH]ccc3c(=O)[nH]2)cc1
inactive: COLO 205 > 100 µM | DU-145 53.6 µM | HCT-116 > 100 µM | HT-29 61.9 µM | K562 > 100 µM | LOX IMVI > 100 µM | M14 > 100 µM | NCI-H226 > 100 µM | OVCAR-3 33 µM | PC-3 37.8 µM | RPMI-8226 > 100 µM | RXF 393 14.5 µM | SF-268 65.3 µM | SN12C > 100 µM | SR > 100 µM | SW-620 > 100 µM | TK-10 95.7 µM | U-251 > 100 µM | UO-31 57.3 µM

CC(=O)Oc1ccc(OC(Oc2ccccc2)c2ccccc2)cc1 (stereo not drawn)
inactive: COLO 205 40.7 µM | DU-145 36.9 µM | HCT-116 24.9 µM | HT-29 28.1 µM | K562 51.4 µM | LOX IMVI 21.6 µM | M14 17.5 µM | NCI-H226 27 µM | OVCAR-3 21.2 µM | PC-3 30 µM | RXF 393 26.1 µM | SF-268 33 µM | SK-MEL-28 26.2 µM | SN12C 15 µM | SR 14.9 µM | SW-620 38.6 µM | TK-10 67.3 µM | U-251 17.5 µM | UO-31 26.8 µM

CCOC(=O)c1cn2c(ccc3sc4ccccc4c(=O)c32)n1
inactive: COLO 205 > 100 µM | DU-145 > 100 µM | HCT-116 > 100 µM | HT-29 > 100 µM | K562 > 100 µM | LOX IMVI > 100 µM | NCI-H226 > 100 µM | OVCAR-3 > 100 µM | PC-3 > 100 µM | RPMI-8226 > 100 µM | RXF 393 > 100 µM | SF-268 > 100 µM | SK-MEL-28 > 100 µM | SN12C > 100 µM | SR > 100 µM | SW-620 > 100 µM | TK-10 > 100 µM | U-251 > 100 µM | UO-31 > 100 µM
